Patent US20030124590A1, “Carbohydrate response element binding protein and uses thereof” (priority 2001, published 2003)
Like-named read-outs stand apart in the source and are kept apart here.

How the values were obtained:
[1] = molecular target: T1, cytosolic Xu-5-P activated PPase (Rattus norvegicus, UniProt P63331); assay: Protein phosphatase assay, cytosolic Xu-5-P activated PPase of liver; type: biochemical; conditions: for inhibition of cytosolic PPase (MonoQ eluate): okadaic acid concentration not stated (below 10 nM)
T1 construct: from tissue; host or cells: rat liver cytosolic extract, DEAE-cellulose then Mono Q
T1 sequence (P63331 whole entry): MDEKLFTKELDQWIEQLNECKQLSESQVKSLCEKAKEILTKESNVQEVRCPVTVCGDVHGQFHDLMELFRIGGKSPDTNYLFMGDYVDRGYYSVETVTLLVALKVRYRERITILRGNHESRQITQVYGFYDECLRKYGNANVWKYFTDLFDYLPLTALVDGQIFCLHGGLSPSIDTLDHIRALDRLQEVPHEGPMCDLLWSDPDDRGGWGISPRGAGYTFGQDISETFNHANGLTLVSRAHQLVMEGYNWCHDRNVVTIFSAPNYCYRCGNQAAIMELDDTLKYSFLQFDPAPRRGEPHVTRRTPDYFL
T1 sequence (P56932 whole entry partner): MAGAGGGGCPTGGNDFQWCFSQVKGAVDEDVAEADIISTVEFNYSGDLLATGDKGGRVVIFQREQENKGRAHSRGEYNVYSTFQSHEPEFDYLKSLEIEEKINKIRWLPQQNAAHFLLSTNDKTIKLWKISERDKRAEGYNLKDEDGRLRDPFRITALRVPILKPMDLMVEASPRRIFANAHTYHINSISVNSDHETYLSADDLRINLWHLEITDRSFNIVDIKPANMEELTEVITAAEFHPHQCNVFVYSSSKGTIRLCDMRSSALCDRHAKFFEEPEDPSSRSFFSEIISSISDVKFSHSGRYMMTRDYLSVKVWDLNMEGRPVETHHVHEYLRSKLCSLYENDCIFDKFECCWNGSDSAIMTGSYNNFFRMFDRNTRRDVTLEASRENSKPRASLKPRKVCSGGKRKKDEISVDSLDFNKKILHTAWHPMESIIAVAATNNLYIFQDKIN
T1 sequence (Q5XI34 1-589 partner): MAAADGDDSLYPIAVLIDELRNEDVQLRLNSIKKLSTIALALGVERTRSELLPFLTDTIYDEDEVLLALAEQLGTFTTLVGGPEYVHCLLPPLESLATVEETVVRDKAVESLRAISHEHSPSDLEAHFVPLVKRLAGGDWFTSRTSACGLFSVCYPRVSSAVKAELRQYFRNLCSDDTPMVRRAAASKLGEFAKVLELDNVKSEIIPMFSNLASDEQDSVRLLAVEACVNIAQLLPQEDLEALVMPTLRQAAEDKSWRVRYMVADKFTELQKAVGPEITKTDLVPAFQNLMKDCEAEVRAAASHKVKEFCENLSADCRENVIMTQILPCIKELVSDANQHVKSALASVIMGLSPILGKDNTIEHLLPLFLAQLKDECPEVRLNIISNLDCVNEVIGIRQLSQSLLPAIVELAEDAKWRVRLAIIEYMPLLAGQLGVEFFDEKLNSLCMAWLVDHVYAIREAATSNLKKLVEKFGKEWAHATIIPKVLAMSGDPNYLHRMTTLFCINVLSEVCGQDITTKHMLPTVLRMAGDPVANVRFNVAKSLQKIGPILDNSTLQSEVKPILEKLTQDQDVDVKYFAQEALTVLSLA
Method: Liver was homogenized in a motor-driven Potter-Elvehjem homogenizer in 1 volume of extraction buffer containing 10 mM Hepes (pH 7.9), 10 mM KCl, 0.1 mM EDTA, 0.74 mM spermidine, 0.25 M sucrose, 50 mM imidazole, 1 mM dithiothreitol (DTT), 4 mM phenylmethanesulfonyl fluoride, and 1 mM benzamidine, and the extract was centrifuged at 10,000×g for 30 min.
(§1) Synthetic peptides corresponding to amino acids #187-201 ([…] “P1” peptide) (SEQ ID NO:64), #556-573 ([…], “P4” peptide) (SEQ ID NO:65), and #655-674 ([…]; “P3” peptide) (SEQ ID NO:66), of ChREBP were prepared by the Peptide Synthesis Service of University of Texas Southwestern Medical Center. These peptides were phosphorylated by 10 U of PKA for 6 h at 30° C. P4 peptide corresponding to 556-573 ([…]) (SEQ ID NO:65), was phosphorylated by 10 U of AMPK for 5 h at 30° C. The reaction mixtures were passed through on a Dowex AG1X8 column (0.5 cm×5 cm) which had been equilibrated with 30% acetic acid to remove residual [^32P]-ATP. The labeled peptides in the pass through fraction were lyophilized.
(§2) Protein phosphatase activity was determined by the method of Deana et al (Deana et al. (1990) Biochem, Biophys. Acta. 1051: 199-202). The reaction mixture contained in a final volume of 50 μ1,20 mM MOPS, pH 7.0, 1 mM DTT, 25 μg of BSA, and ^32P-labeled substrate for 15 min at 30° C. The reaction was terminated by the addition of 10% trichloroacetic acid. Phosphate released was converted to a phosphomolybdic complex followed by organic solvent (isobutyl alcohol:heptane, 1:1) extraction of the complex. The reaction mixture was mixed thoroughly and centrifuged. An aliquot of the top layer was then added to 5 ml scintillation fluid and counted. One unit of protein phosphatase is defined as that amount which catalyzes the release of 1.0 μmol of ^32P/min at 30° C.
(§3) These peptides were assayed with Mono Q purified cytosolic and nuclear PPases in the presence and absence of 50 μM Xu-5-P.

PP2A = PP2A (Homo sapiens, UniProt P67775); conditions: cited from earlier work
PP2A, sequence (P67775 whole entry): as the sequence (P63331 whole entry) above, with L5V counted along it

ChREBP = assay: Gel shift of purified ChREBP after incubation with PKA/PP2A in vitro; type: biochemical, rat; conditions: okadaic acid 10 nM
Method: Gel shift assay. Gel mobility shift assays were performed as described by Liu et al. (Liu et al. (1993) J Biol Chem 268, 12787-12795). Double-stranded oligonucleotides (Table 1) were prepared by mixing equal amounts of the complementary single-stranded DNAs in 50 mM NaCl, heating to 70° C. for 15 min, and cooling to room temperature. The annealed oligonucleotides were labeled with ^32P in the presence of [γ^32P]-ATP (Amersham Pharmacia) and T4 polynucleotide kinase (New England Biolabs). Binding reactions were carried out in reaction mixture containing 20 mM Hepes (pH 7.9), 50 mM KCl, 5 mM DTT, 0.2 mM EDTA, 0.5 mM PMSF, 10% glycerol, 1 μg/μl of poly(dI-dC) (Amersham Pharmacia) and 1 μg/μl of nuclear extract. The reaction mixture was incubated at room temperature for 30 min and DNA-protein complexes were separated by electrophoresis in a 4.5% nondenaturing polyacrylamide gel.
Purified ChREBP was incubated with PKA and/or PP2A in vitro and measured by gel-shift analysis with the [^32P]-radiolabeled WT oligonucleotide. Purified ChREBP was incubated for 20 min with ATP (1 mM), PKA (0.1 U/μl), 0.2 U/μl PKI, 0.025 U/μl PP2A and the PP2A inhibitor, okadaic acid (10 nM).

[2] = molecular target: T2, nuclear Xu-5-P activated PPase (Rattus norvegicus, UniProt P63331); assay: Protein phosphatase assay, nuclear Xu-5-P activated PPase of liver; type: biochemical; conditions: read-out: inhibition of nuclear Xu-5-P-activated PPase (Mono Q eluate); for inhibition at 0.001 µM: 1 nM okadaic acid, P3 substrate
T2 construct: from tissue; host or cells: rat liver nuclear extract, DEAE-cellulose then Mono Q
T2 sequence (P63331 whole entry): as the sequence (P63331 whole entry) above
T2 sequence (P56932 whole entry partner): as the sequence (P56932 whole entry partner) above
T2 sequence (Q5XI34 1-589 partner): as the sequence (Q5XI34 1-589 partner) above
Method: Liver nuclear extracts were prepared as described in Example 1.
as §1, §2, §3

C=C1[C@@H](O)[C@@H]2O[C@]3(CC[C@H](/C=C/[C@@H](C)[C@@H]4CC(C)=C[C@@]5(O[C@H](C[C@@](C)(O)C(=O)O)CC[C@H]5O)O4)O3)CC[C@H]2O[C@@H]1[C@@H](O)C[C@H](C)[C@H]1O[C@@]2(CCCCO2)CC[C@H]1C [okadaic acid]
inhibition of cytosolic PPase (MonoQ eluate) ([1]; absence of Xu-5-P): approximately 65%
inhibition of cytosolic Xu-5-P activated PPase (in words) ([1]; okadaic acid 10 nM (absence and presence of Xu-5-P), cantharidic acid 500 nM, deltamethrin 300 nM): completely
inhibition of cytosolic PPase (MonoQ eluate) ([1]; presence of Xu-5-P): ~50%
IC50 (PP2A): 1 nM
reactivation of phosphorylated ChREBP by PP2A (ChREBP): blocked
inhibition at 0.001 µM ([2]; absence of Xu-5-P): 63%
inhibition at 0.001 µM ([2]; presence of Xu-5-P): 70%
inhibition at 0.01 µM ([2]; 10 nM okadaic acid): > 95%
